Experimental data published in paper PMC6368365, “Didehydro-Cortistatin A Inhibits HIV-1 by Specifically Binding to the Unstructured Basic Region of Tat” (mBio, 2019).

Assays:
[1] = tested on: recombinant Tat transactivation of HIV-1 transcription in OM10.1 cells; assay: Transactivation assay with recombinant Tat in OM10.1 cell model of HIV-1 latency; type: cell-based; conditions: Tat 1 μg, dCA 250 nM
Source text: The production of functional recombinant HIV-1 Tat in Escherichia coli is not trivial as the proper folding of Tat is extremely important for activity, and when expressed by itself, Tat agglomerates mostly because of oxidation of the cysteine residues in the cysteine region. Tat can also adhere to different surfaces and anionic polymers via its charged and hydrophobic residues ([21], [22]). We produced and purified recombinant HIV Tat HXB3 (residues 1 to 89) with a 6×His tag in the C-terminus in E. coli. For this, we have partially optimized the arginine codon usage and changed the rare AGA into codon CGT at arginine positions 7, 53, 56, and 87 of Tat (Fig. 1A). […] After Tat purification using nickel affinity chromatography followed by size exclusion filtration, Tat protein size was analyzed by SDS-PAGE followed by Coomassie blue staining (Fig. 1B). The specificity of the bands was confirmed by Western blotting using anti-Tat serum and anti-His antibody (Fig. 1B). The purity of Tat was further verified by size exclusion chromatography and high-performance liquid chromatography (HPLC) (Fig. 1C and D). […]
FIG 1 Purity and activity of the monomeric His-tagged Tat HXB3 and analysis of its direct binding to dCA. […] Statistical significance was determined using one-way ANOVA with post hoc Tukey’s test. ns, not significant; ***, P < 0.0001; *, P < 0.01. […]

Trp^11 of Tat protein = biological target: T1, Trp^11 of Tat protein (Human immunodeficiency virus type 1 group M subtype B, UniProt P69697); assay: Trp fluorescence assay of recombinant Tat; type: binding, HIV-1; conditions: for effect on intrinsic Trp fluorescence of Tat: compound/Tat ratio of 7.5/1
T1 construct: pTatC6H-1 (NIH AIDS Reagent Program) plasmid encoding C-terminal 6xHistidine Tat1-86 (HXB3, subtype B); made in house; host or cells: E. coli BL21 (plasmid pTatC6H-1, NIH AIDS Reagent Program)
T1 sequence (P69697 whole entry): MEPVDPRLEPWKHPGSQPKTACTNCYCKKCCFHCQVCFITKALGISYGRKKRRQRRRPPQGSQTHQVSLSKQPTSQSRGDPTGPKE
Source text: Next, we investigated whether dCA mediated conformational changes in Tat. NMR studies have reported the fluorescence of Tat’s unique Trp^11 to be highly sensitive to conformational modifications ([2], [15]). As such, we assessed Tat fluorescence between wavelengths of 310 nm and 410 nm (Fig. 5A, left).
FIG 5 dCA stabilizes Tat structure. (A) Trp fluorescence assays. (Left) Schematic of the assay. (Center) DMSO, dCA (7.5× Tat concentration) or raltegravir (Ralt.; 7.5× Tat concentration) was incubated with Tat. The fluorescence of the Trp^11 of Tat protein was measured at the indicated wavelengths. Acrylamide (250 mM) was used as a quenching control of Tat fluorescence. (Right) Peak absorbance (λmax) versus increasing fold ratios of compounds to Tat protein. Data are representative of n = 3 independent experiments. (B) DARTS assays. Tat was incubated with DMSO or dCA, at increasing concentrations, in the presence of increasing concentrations of proteinase K (PK). […] Data are representative of n = 2 independent experiments. (C) Steady state of Tat in the presence of dCA in vivo. HeLa-CD4-LTR-Luc cells were incubated with recombinant Tat and then washed and incubated with the indicated compounds for 6 hours. […] (Left) Western blot representative of n = 4 independent experiments. MG132 was used as a positive control of Tat protection from degradation, and raltegravir was used as a negative control. (Right) Densitometry of the Tat band normalized to the actin band. Results represent the mean ± SEM from n = 4 independent experiments. Statistical significance was determined using one-way ANOVA with post hoc Tukey’s test. ns, not significant; ***, P < 0.0001; **, P < 0.001.
Recombinant Tat (2.5 μM) was incubated with different concentrations of dCA or raltegravir in a 96-well plate. The solution was excited at 280 nm, and the emission of Trp fluorescence was read from 310 to 410 nm. The background induced by the compounds alone or buffer of dilution was subtracted from the Trp signal. Acrylamide (250 mM) was used as a quencher of the fluorescence.

Row | Compound | inhibition of recombinant Tat transactivation (HIV mRNA) [1] | λmax of Tat Trp fluorescence (Trp^11 of Tat protein; compound/Tat ratio 7.5/1, Tat alone 360 nm) | effect on intrinsic Trp fluorescence of Tat (Trp^11 of Tat protein) | I330/350 ratio of Tat Trp fluorescence (Trp^11 of Tat protein; dCA/Tat ratio of 7.5/1, Tat alone 0.73)
1 | C[C@@](Cc1ccc(O)c(O)c1)(NN)C(=O)O.O [SCM, S-(−)-carbidopamonohydrate, reference compound] | no activity | – | – | –
2 | CN(C)C1CC23CCC4(O2)C(=CCC2(C)C(c5ccc6ccncc6c5)=CCC24)C=C3C(O)C1O (stereo not drawn) [dCA, didehydro-cortistatin A] | inhibited transcriptional activity of Tat | 350 nm | decreased intensity of the Trp fluorescence | 0.893
3 | Cc1nnc(C(=O)NC(C)(C)c2nc(C(=O)NCc3ccc(F)cc3)c(O)c(=O)n2C)o1 [raltegravir, reference compound] | – | – | no effect on the intrinsic fluorescence of Tat | –
